Target: T1, NHE1 (SLC9A1) (Homo sapiens, UniProt P19634)
T1 construct: endogenous in cells; host or cells: MDA-MB-468
Test: BCECF-AM pH recovery assay, MDA-MB-468 breast cancer cells
Type: cell-based
Conditions: BCECF; read-out: pIC50 (act), SLC9A1 (converted)
Method: The cells were seeded (6.000 cells/well) in poly-d-lysine-coated 384-well plates (black, transparent bottom) and grown for 24 h at 37°C and 5% CO2. The media was removed, and the cells were washed once in sodium-free loading buffer (115 mM choline chloride, 20 mM NH4Cl, 5 mM KCl, 1 mM CaCl2, 1 mM MgCl2, 20 mM HEPES pH 7.4, and 5 mM glucose) and subsequently incubated for 30–45 min at 37°C in a loading buffer containing 10 µM 2′,7′-Bis(2-carboxyethyl)-5(6)-carboxyfluorescein tetrakis (acetoxymethyl) ester (BCECF-AM). The loading buffer was removed, and the cells were washed twice with NH4Cl-free acidification buffer (133.8 mM choline chloride, 4.7 mM KCl, 1.25 mM CaCl2, 1.25 mM MgCl2, 0.97 mM K2HPO4, 0.23 mM KH2PO4, 5 mM HEPES pH 7.4, and 5 mM glucose) using a plate dispenser (Multidrop Combi+, Thermo Fisher Scientific, US). The cells were incubated 5 min with 15 µL compounds at 2× concentration in acidification buffer. The assay readout was acquired using a plate reader (POLARstar Omega, BMG LABTECH, Germany) set to measure Ex./Em. at 440 nm/520 nm and 485 nm/520 nm over a period of 15 min. A baseline read was recorded before the plate readers automated dispensing of 15 µL recovery buffer (133.8 mM NaCl, 4.7 mM KCl, 1.25 mM CaCl2, 1.25 mM MgCl2, 0.97 mM Na2HPO4, 0.23 mM NaH2PO4, 5 mM HEPES pH 7.4, and 5 mM glucose), which initializes cellular pH recovery. The mean baseline measurement was subtracted from the intensities of each well, and a fluorescence intensity ratio for excitations at 485 nm and 440 nm was calculated. The data were normalized to DMSO (maximum) and no recovery controls (minimum). The data were analyzed using R, and the dr4pl package was used to fit dose–response data to the four-parameter logistic model.

T1 sequence (P19634 whole entry): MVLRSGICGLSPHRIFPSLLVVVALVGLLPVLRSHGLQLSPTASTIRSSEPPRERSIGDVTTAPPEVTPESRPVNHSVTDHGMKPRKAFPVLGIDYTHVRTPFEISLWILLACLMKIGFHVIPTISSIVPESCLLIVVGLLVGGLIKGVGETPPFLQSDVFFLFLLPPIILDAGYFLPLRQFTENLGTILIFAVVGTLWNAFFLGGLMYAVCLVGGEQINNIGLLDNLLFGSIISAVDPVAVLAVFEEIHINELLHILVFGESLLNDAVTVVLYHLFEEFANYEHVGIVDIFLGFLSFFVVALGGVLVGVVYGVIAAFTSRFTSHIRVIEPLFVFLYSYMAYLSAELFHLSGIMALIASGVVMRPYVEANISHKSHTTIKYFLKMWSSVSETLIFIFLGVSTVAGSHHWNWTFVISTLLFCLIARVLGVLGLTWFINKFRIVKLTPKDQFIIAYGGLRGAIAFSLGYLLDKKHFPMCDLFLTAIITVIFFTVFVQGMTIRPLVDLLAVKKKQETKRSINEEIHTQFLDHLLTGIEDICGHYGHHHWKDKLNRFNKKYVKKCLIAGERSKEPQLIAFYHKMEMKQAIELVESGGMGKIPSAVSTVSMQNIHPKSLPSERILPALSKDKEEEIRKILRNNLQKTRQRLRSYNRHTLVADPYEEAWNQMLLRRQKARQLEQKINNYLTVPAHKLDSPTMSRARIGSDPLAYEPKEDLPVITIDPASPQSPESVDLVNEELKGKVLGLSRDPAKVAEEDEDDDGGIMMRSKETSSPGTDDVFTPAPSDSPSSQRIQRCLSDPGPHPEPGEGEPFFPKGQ

Row | SMILES | IC50
1 | CCOC(=O)N1CCC(=C2c3ccc(Cl)cc3CCc3cccnc32)CC1 [Loratadine] | > 10 µM
2 | Nc1nc2ccc(OC(F)(F)F)cc2s1 [Riluzole] | > 10 µM
3 | N[C@H](C(=O)O)[C@H](OCc1cccc(NC(=O)c2ccc(C(F)(F)F)cc2)c1)C(=O)O [TFB-TBOA] | > 10 µM
4 | NC(C(=O)O)C(OCc1ccccc1)C(=O)O (stereo not drawn) [Threo-beta-benzyloxyaspartic acid, Threo-beta-Benzyloxyaspartic acid] | > 10 µM
5 | Cc1ccsc1C(=CCCN1CCC[C@@H](C(=O)O)C1)c1sccc1C [Tiagabine] | > 10 µM
6 | COc1ccc(C2C(C#N)=C(N)OC3=C2C(=O)CC(c2cccc4ccccc24)C3)cc1 (stereo not shown) [UCPH-101] | > 10 µM
7 | CC1C(C#N)=C(N)OC2=C1C(=O)CC(c1cccc3ccccc13)C2 (stereo not shown) [UCPH-102] | > 10 µM
8 | Fc1ccc(C(OCCN2CCN(CCCc3ccccc3)CC2)c2ccc(F)cc2)cc1 [Vanoxerine (GBR12909), Vanoxerine] | > 10 µM
9 | N[C@@H](CC(=O)Nc1ccc(Oc2cc(F)c(F)cc2Br)cc1)C(=O)O [WAY-213613] | > 10 µM

Target: T2, SLC6A12 (Homo sapiens, UniProt P48065)
T2 construct: expressed in transfected cells; host or cells: Jump In T-REx HEK293
T2 sequence (P48065 1-614): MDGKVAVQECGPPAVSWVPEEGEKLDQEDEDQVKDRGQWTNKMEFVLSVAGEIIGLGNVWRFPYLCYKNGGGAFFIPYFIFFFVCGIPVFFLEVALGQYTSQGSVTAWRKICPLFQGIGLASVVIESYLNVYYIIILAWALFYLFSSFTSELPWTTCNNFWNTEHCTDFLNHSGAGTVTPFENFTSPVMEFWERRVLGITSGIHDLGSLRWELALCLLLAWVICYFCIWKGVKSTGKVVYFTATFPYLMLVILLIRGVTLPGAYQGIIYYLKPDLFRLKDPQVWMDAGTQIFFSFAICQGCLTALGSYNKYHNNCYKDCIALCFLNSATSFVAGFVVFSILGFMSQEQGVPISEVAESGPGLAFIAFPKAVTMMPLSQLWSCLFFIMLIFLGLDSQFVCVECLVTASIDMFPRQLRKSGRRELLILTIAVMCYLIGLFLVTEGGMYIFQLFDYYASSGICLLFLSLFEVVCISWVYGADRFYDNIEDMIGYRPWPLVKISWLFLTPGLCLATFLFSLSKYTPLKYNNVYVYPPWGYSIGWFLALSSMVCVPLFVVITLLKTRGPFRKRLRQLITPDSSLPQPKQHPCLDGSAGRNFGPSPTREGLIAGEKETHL
Test: Membrane potential dye-based assay, HEK293–JumpIn–SLC6A12 cells
Type: cell-based
Conditions: target SLC6A12, Flipr Membrane Potential-Blue-Dye; read-out: pIC50 (act) (converted)
Method: (§1) FLIPR Membrane Potential Blue Dye was used to detect the compound activities for those membrane transporters that are electrogenic or whose activity is associated with changes in membrane potential, as previously described ([Jensen and BräunerOsborne, 2004]). In brief, cells are seeded at cell line-specific density in black clear-bottom poly-D-Lysine-coated 384-well plates (Greiner Bio-One) in DMEM high-glucose medium with 10% FBS, 1% P/S, and 2 mM UltraGlutamine I (25 µL/well). Furthermore, 24 h after seeding, the culture medium is removed, and the cells are loaded with 20 µL/well of 0.5 X FMP Blue Dye in assay buffer (modified Tyrode’s buffer, 130 mM NaCl, 5 mM KCl, 1 mM MgCl2, 2 mM CaCl2, 5 mM NaHCO3, and 20 mM HEPES pH 7.4). The plates are subsequently incubated for at least 30 min at room temperature in the dark. Then, 10 µL/well of test compounds and controls is added at defined concentrations (0.5% DMSO final conc.) in the FLIPR TETRA instrument (Molecular Devices), and emitted fluorescence is recorded using a λexc 510–545-nm/λem 565–625-nm filter. The dose–response curves for the 19 compounds were prepared starting from 3 µM (final top concentration), the half-log serial dilution factor. For data analysis, Genedata Screener 19.0 software was used.
(§2) The robust Z prime factor (RZ’ factor) was calculated with the following formula: RZ^′=1−3∗RSDMAX+RSDMIN/AbsMAX − MIN, where the RZ’ factor is based on the same formula as the Z′ factor ([Zhang et al., 1999]) but standard deviations and means are replaced by the robust standard deviations and medians, respectively. Curve fitting profiles were performed on each dose–response curve with the analyzer module of Genedata Screener 19.0 on % activity.

Row | SMILES | IC50
10 | CCOC(=O)N1CCC(=C2c3ccc(Cl)cc3CCc3cccnc32)CC1 [Loratadine] | > 3.16 µM
11 | Nc1nc2ccc(OC(F)(F)F)cc2s1 [Riluzole] | > 3.16 µM
12 | N[C@H](C(=O)O)[C@H](OCc1cccc(NC(=O)c2ccc(C(F)(F)F)cc2)c1)C(=O)O [TFB-TBOA] | > 3.16 µM
13 | NC(C(=O)O)C(OCc1ccccc1)C(=O)O (stereo not drawn) [Threo-beta-benzyloxyaspartic acid, Threo-beta-Benzyloxyaspartic acid] | > 3.16 µM
14 | Cc1ccsc1C(=CCCN1CCC[C@@H](C(=O)O)C1)c1sccc1C [Tiagabine] | > 3.16 µM
15 | COc1ccc(C2C(C#N)=C(N)OC3=C2C(=O)CC(c2cccc4ccccc24)C3)cc1 (stereo not shown) [UCPH-101] | > 3.16 µM
16 | CC1C(C#N)=C(N)OC2=C1C(=O)CC(c1cccc3ccccc13)C2 (stereo not shown) [UCPH-102] | > 3.16 µM
17 | Fc1ccc(C(OCCN2CCN(CCCc3ccccc3)CC2)c2ccc(F)cc2)cc1 [Vanoxerine (GBR12909), Vanoxerine] | > 3.16 µM
18 | N[C@@H](CC(=O)Nc1ccc(Oc2cc(F)c(F)cc2Br)cc1)C(=O)O [WAY-213613] | > 3.16 µM

Target: T3, SLC23A1 (Homo sapiens, UniProt Q9UHI7)
T3 construct: expressed in transfected cells; host or cells: Jump In T-REx HEK293 (general cell-line paragraph)
Test: RESOLUTE assay on SLC23A1
Type: cell-based
Conditions: Flipr Membrane Potential-Blue-Dye; read-out: pIC50 (act), SLC23A1 (converted)
Method: as §1, §2

T3 sequence (Q9UHI7 whole entry): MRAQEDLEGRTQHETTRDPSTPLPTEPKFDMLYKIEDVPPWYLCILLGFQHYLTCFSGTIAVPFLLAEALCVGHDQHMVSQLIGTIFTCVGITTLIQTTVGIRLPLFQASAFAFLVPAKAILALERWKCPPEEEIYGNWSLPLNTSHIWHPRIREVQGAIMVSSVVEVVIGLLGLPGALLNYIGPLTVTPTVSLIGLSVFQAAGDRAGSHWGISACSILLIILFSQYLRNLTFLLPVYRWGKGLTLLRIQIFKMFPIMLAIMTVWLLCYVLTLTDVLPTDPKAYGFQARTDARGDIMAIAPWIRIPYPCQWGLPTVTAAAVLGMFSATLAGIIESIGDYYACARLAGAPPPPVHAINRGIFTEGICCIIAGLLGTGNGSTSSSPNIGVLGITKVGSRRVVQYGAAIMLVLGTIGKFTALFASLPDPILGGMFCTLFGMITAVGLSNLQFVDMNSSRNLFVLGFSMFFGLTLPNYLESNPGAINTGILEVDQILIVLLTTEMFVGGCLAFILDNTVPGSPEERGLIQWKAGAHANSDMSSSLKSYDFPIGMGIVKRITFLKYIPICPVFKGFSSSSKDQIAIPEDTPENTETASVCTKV

Row | SMILES | IC50
19 | CCOC(=O)N1CCC(=C2c3ccc(Cl)cc3CCc3cccnc32)CC1 [Loratadine] | > 3.16 µM
20 | Nc1nc2ccc(OC(F)(F)F)cc2s1 [Riluzole] | > 3.16 µM
21 | N[C@H](C(=O)O)[C@H](OCc1cccc(NC(=O)c2ccc(C(F)(F)F)cc2)c1)C(=O)O [TFB-TBOA] | > 3.16 µM
22 | NC(C(=O)O)C(OCc1ccccc1)C(=O)O (stereo not drawn) [Threo-beta-benzyloxyaspartic acid, Threo-beta-Benzyloxyaspartic acid] | > 3.16 µM
23 | Cc1ccsc1C(=CCCN1CCC[C@@H](C(=O)O)C1)c1sccc1C [Tiagabine] | > 3.16 µM
24 | COc1ccc(C2C(C#N)=C(N)OC3=C2C(=O)CC(c2cccc4ccccc24)C3)cc1 (stereo not shown) [UCPH-101] | > 3.16 µM
25 | CC1C(C#N)=C(N)OC2=C1C(=O)CC(c1cccc3ccccc13)C2 (stereo not shown) [UCPH-102] | > 3.16 µM
26 | Fc1ccc(C(OCCN2CCN(CCCc3ccccc3)CC2)c2ccc(F)cc2)cc1 [Vanoxerine (GBR12909), Vanoxerine] | > 3.16 µM
27 | N[C@@H](CC(=O)Nc1ccc(Oc2cc(F)c(F)cc2Br)cc1)C(=O)O [WAY-213613] | > 3.16 µM

Target: SLC6A2 (Homo sapiens, UniProt P23975)
Test: Impedance-based TRACT assay, HEK293–JumpIn–NET (SLC6A2) cells
Type: cell-based
Parameters: expressed in transfected cells; host or cells: Jump In T-REx HEK293
Conditions: dox-induced HEK293–JumpIn–SLC6A2 cells; 1 µM norepinephrine; read-out: pIC50, SLC6A2, TRACT (converted)

Chain of SLC6A2 (P23975 whole entry): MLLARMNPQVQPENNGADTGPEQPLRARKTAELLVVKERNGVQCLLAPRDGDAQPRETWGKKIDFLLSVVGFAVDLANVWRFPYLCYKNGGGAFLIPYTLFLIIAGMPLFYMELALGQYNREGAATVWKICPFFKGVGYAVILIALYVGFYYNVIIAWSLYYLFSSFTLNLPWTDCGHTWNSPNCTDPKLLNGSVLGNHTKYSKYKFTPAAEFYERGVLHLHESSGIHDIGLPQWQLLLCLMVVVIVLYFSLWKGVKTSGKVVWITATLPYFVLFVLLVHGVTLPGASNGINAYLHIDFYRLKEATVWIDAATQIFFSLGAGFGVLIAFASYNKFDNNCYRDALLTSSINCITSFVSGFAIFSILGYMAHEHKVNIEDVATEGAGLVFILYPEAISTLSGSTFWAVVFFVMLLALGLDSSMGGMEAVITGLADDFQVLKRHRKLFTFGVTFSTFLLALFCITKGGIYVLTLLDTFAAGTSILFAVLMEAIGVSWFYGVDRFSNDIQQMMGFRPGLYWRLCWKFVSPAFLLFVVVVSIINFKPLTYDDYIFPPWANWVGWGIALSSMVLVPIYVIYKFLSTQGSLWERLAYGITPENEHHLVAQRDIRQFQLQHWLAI

Row | IC50 | SMILES
28 | 1 µM | N[C@@H](CC(=O)Nc1ccc(Oc2cc(F)c(F)cc2Br)cc1)C(=O)O [WAY-213613]

Same assay, conditions: target SLC6A2, assay TRACT; read-out: pIC50 (act) (converted)

Row | SMILES | IC50
29 | Nc1nc2ccc(OC(F)(F)F)cc2s1 [Riluzole] | > 10 µM
30 | N[C@H](C(=O)O)[C@H](OCc1cccc(NC(=O)c2ccc(C(F)(F)F)cc2)c1)C(=O)O [TFB-TBOA] | > 10 µM
31 | NC(C(=O)O)C(OCc1ccccc1)C(=O)O (stereo not drawn) [Threo-beta-benzyloxyaspartic acid, Threo-beta-Benzyloxyaspartic acid] | > 10 µM
32 | Cc1ccsc1C(=CCCN1CCC[C@@H](C(=O)O)C1)c1sccc1C [Tiagabine] | > 10 µM
33 | COc1ccc(C2C(C#N)=C(N)OC3=C2C(=O)CC(c2cccc4ccccc24)C3)cc1 (stereo not shown) [UCPH-101] | > 10 µM
34 | CC1C(C#N)=C(N)OC2=C1C(=O)CC(c1cccc3ccccc13)C2 (stereo not shown) [UCPH-102] | > 10 µM

Source: PMC11267547, “Advancing drug discovery through assay development: a survey of tool compounds within the human solute carrier superfamily” (Frontiers in Pharmacology, 2024)
